Assay results reported in publication PMC9658586, “1,4-Naphthoquinone Motif in the Synthesis of New Thiopyrano[2,3-d]thiazoles as Potential Biologically Active Compounds” (Molecules, 2022).
Read-outs that look alike come from different tables or passages of the source.

Legend:
[1] = system: human chronic myelogenous leukemia K562 cells; assay: MTT cell viability assay, K562; assay type: cell-based
Description: (§1) The MTT cell viability assay was performed 72 h after cells treatment with various concentrations of studied compounds and doxorubicin, a reference drug. […] It is known that ABCB1 (P-glycoprotein), MRP1/ABCC1 (multidrug resistance protein 1), and BCRP/BCG2 (breast cancer resistance protein) have been reported to be key players in resistance to chemotherapy. […] The p53 has diverse mutations in almost all human tumors, stimulating their hyper-proliferation, invasion/metastasis, and thus, influencing the potency of various chemotherapeutics (i.e., platins and anti-metabolites).
(§2) Human colon carcinoma HCT116 cells, human breast adenocarcinoma cells of MCF-7 line, human T-leukemia Jurkat cells, human chronic myelogenous leukemia K562 cells, and human keratinocytes of HaCaT line were from the Cell Collection of R.E. Kavetsky Institute of Experimental Pathology, Oncology and Radiobiology (Kyiv, Ukraine). Murine macrophages of J774.2 line were a generous gift from Professor Sir John Vane (William Harvey Research Institute, London, UK) via Professor Janusz Marcinkiewicz (Jagiellonian University Medical College, Krakow, Poland). Human colon carcinoma HCT116 p53-/- cells with knockdown of P53 gene, as well as human epidermoid cervix carcinoma KB3-1 cells and its ABCB1-overexpressing subline KBC-1, were kindly provided by Professor W. Berger (Institute of Cancer Research, Medical University of Vienna, Austria). […] Human leukemia monocytic THP-1 cells were kindly provided by Professor M. Herrmann (Department of Internal Medicine, Institute for Clinical Immunology and Rheumatology, University of Erlangen-Nuremberg, Germany). Cells were cultured in DMEM or RPMI-1640 medium supplemented with 10% fetal bovine serum (all were purchased from Biowest, Nuaille, France) at 37 °C in a humidified atmosphere containing 5% CO2.
(§3) MTT assay was used to examine the viability of tumor and pseudo-normal cells after their treatment with studied thiopyrano[2,3-d]thiazole derivatives and doxorubicin (Actavis S.R.L., Bucharest, Romania). Cells were seeded in 96-well plates at a density of 3–5 × 103. After 24 h, cells were treated with compound […], 1,4-NQ (0.1–100 µM), and doxorubicin (0.1–100 µM). After incubation for 72 h, MTT reagent (Sigma-Aldrich, St. Louis, MO, USA) was added to each well, according to the Sigma-Aldrich protocol. An absorbance Reader BioTek ELx800 (BioTek Instruments, Inc., Winooski, VT, USA) was used to measure the reaction product.

[2] = system: human epidermoid cervix carcinoma KB3-1 cells; assay: MTT cell viability assay, KB3-1; assay type: cell-based
Description: as §1, §2, §3

[3] = system: Human colon carcinoma HCT116 cells (HCT116wt); assay: MTT cell viability assay, HCT116wt; assay type: cell-based
Description: as §1, §2, §3

[4] = system: human breast adenocarcinoma cells of MCF-7 line; assay: MTT cell viability assay, MCF-7; assay type: cell-based
Description: as §1, §2, §3

[5] = system: Human colon carcinoma HCT116 p53-/- cells; assay: MTT cell viability assay, HCT116 p53-/-; assay type: cell-based; conditions: MTT, 72 h, read-out: IC50, HCT116 p53-/-
Description: as §1, §2, §3

[6] = system: Murine macrophages of J774.2 line; assay: MTT cell viability assay, J774.2; assay type: cell-based; conditions: pseudo-normal murine macrophages
Description: as §1, §2, §3

[7] = system: KBC-1 (ABCB1-overexpressing subline of KB3-1); assay: MTT cell viability assay, KBC-1; assay type: cell-based; conditions: Homo sapiens, 72 h
Description: as §1
as §2, with “Cells were cultured in DMEM or RPMI-1640 medium supplemented with 10% fetal bovine serum (all were purchased from Biowest, Nuaille, France) at 37 °C in a humidified atmosphere containing 5% CO2.” left out
MTT assay was used to examine the viability of tumor and pseudo-normal cells after their treatment with studied thiopyrano[2,3-d]thiazole derivatives and doxorubicin (Actavis S.R.L., Bucharest, Romania). […] An absorbance Reader BioTek ELx800 (BioTek Instruments, Inc., Winooski, VT, USA) was used to measure the reaction product.

salmon sperm DNA = assay: DNA/methyl green colorimetric (replacement) assay; assay type: binding; conditions: 1µM
Description: In addition, we used DNA/methyl green colorimetric assay to study the possible interaction of compound 3.6 in DNA. […] This assay was used to measure the displacement of methyl green from DNA by compounds with the ability to intercalate DNA [54].
The capacity of the tested compounds to intercalate into salmon sperm DNA was determined using the methyl green assay. Briefly, salmon sperm DNA (10 mg/mL) was incubated for 1 h at 37 °C with 15 µL of methyl green solution (1 mg/mL in H2O). The compounds were added at concentrations 1 and 10 µM/mL and incubated at 37 °C in the dark for 2 h. Reduction of the absorbance of methyl green at 642 nm induced by the test compounds was measured with a multiplate reader, Plate Reader BioTek Lx80 ( BioTek Instruments, Inc., Winooski, VT, USA). Doxorubicin, a well-known intercalating agent, was used as a positive control.

[8] = system: isolated normal human peripheral blood lymphocytes; assay: MTT cell viability assay, isolated lymphocytes; assay type: cell-based; conditions: Homo sapiens, Lymphocyte, 72 h, read-out: IC50, Isolated lymphocytes, MTT, 72 h, normal human peripheral blood lymphocytes
Description: We continued the cytotoxicity study of synthesized derivatives 3.1–3.6 toward tumor and pseudo-normal cells in vitro. The MTT cell viability assay was performed 72 h after cells treatment with various concentrations of studied compounds and doxorubicin, a reference drug. […] The THP-1 cells, monocytes isolated from peripheral blood from an acute monocytic leukemia patient, were also sensitive to the 3.6 treatment. […] The 3.6 inhibited the viability of epidermoid carcinoma (KB3-1 and its ABCB1-overexpressing subline KBC-1) and colon carcinoma (HCT116wt and its p53 knockdown subline HCT116 p53-/-) cells. It is known that ABCB1 (P-glycoprotein), MRP1/ABCC1 (multidrug resistance protein 1), and BCRP/BCG2 (breast cancer resistance protein) have been reported to be key players in resistance to chemotherapy. […] Thus, the p53 status of colon carcinoma cells influenced the anti-tumor effects of the studied 3,5,10,11-tetrahydro-2H-benzo[6,7]thiochromeno[2,3-d][1, 3]thiazole-2,5,10-trione. The p53 has diverse mutations in almost all human tumors, stimulating their hyper-proliferation, invasion/metastasis, and thus, influencing the potency of various chemotherapeutics (i.e., platins and anti-metabolites). […] Based on our findings, one can assume a p53-dependent mode of action for 3.6 toward colon cancer cells.
as §3
The study protocol with human lymphocytes isolated from healthy adult peripheral blood was approved by BioEthics Committee of the Institute of Cell Biology of National Academy of Sciences of Ukraine (protocol No 2 from 27 January 2019), and with written consent of donor.

T-47D/Breast Cancer = assay: NCI single-dose screen, T-47D; assay type: cell-based, human; conditions: 10 μM, 48 h
Description: (§4) Considering the results of previous studies of fused thiazolidinones and their analogs, a series of thiopyrano[2,3-d]thiazoles with naphthoquinone fragments in the structure were studied for their anticancer activity. Thus, synthesized thiopyranothiazole derivatives 3.5 and 3.6 were selected by the National Cancer Institute (NCI), U.S., for their anticancer activity at 10 μM concentration toward a panel of sixty cancer cell lines representing nine different types (leukemia, melanoma, lung, colon, CNS, ovarian, renal, prostate, and breast cancers) (Figures S13–S14). Selection for screening based on new derivatives’ ability to add diversity to the NCI small molecules collection and anticancer assays were performed according to the NCI guidelines and protocols previously described. The compounds were added at the mentioned concentration, and the cell cultures were incubated for 48 h. The results for each compound were reported as the growth percent (GP%) of treated cells compared with untreated control cells.
(§5) Anticancer in vitro assay was performed on the human tumor cell lines panel derived from nine neoplastic diseases by the protocol of the Drug Evaluation Branch, National Cancer Institute, Bethesda, MD, USA [44, 45, 46]. […] GP% was spectrophotometrically evaluated vs. controls not treated with test agents.

[9] = system: EKVX/Non-Small Cell Lung Cancer; assay: NCI single-dose screen, EKVX; assay type: cell-based, human; conditions: 10 μM, 48 h
Description: as §4, §5

UO-31/Renal Cancer = assay: NCI single-dose screen, UO-31; assay type: cell-based, human; conditions: 10 μM, 48 h
Description: as §4, §5

SR/Leukemia = assay: NCI single-dose screen, SR; assay type: cell-based, human; conditions: 10 μM, 48 h
Description: as §4, §5

RPMI-8226/Leukemia = assay: NCI single-dose screen, RPMI-8226; assay type: cell-based, human; conditions: 10 μM, 48 h
Description: as §4, §5

IGROV1/Ovarian Cancer = assay: NCI single-dose screen, IGROV1; assay type: cell-based, human; conditions: 10 μM, 48 h
Description: as §4, §5

[10] = system: panel of sixty cancer cell lines; assay: NCI single-dose (10 μM) anticancer screen, sulforhodamine B, 60-cell-line panel; assay type: cell-based, human; conditions: 48 h
Description: as §4
Anticancer in vitro assay was performed on the human tumor cell lines panel derived from nine neoplastic diseases by the protocol of the Drug Evaluation Branch, National Cancer Institute, Bethesda, MD, USA [44, 45, 46]. Tested compounds were added to the culture at a single concentration (10^−5 M), and the cultures were incubated for 48 h. Endpoint determinations were made with a protein binding dye, sulforhodamine B. Results for each tested compound were reported as the GP% of the treated cells compared to untreated control cells. GP% was spectrophotometrically evaluated vs. controls not treated with test agents.

Compound | IC50 ([2]; Homo sapiens, KB 3-1, 72 h) | IC50 ([1]; Homo sapiens, K562, 72 h) | IC50 ([3]; Homo sapiens, HCT-116, 72 h) | IC50 ([4]; Homo sapiens, MCF7, 72 h) | melting point | IC50 ([5]; Homo sapiens, HCT-116) | IC50 ([6]; Mus musculus, J774.2, 72 h) | also measured
11-(2-Phenylprop-1-en-1-yl)-3,11-dihydro-2H-benzo[6,7]thiochromeno[2,3-d]thiazole-2,5,10-trione [Compound 3.3] |  |  |  |  |  |  |  | IC50 ([1]; 72 h): 13 µM; IC50 ([2]; 72 h): 28.8 µM; IC50 ([3]; 72 h): 15.8 µM; IC50 ([4]; 72 h): 26.8 µM; IC50 [5]: 11.1 µM; IC50 ([6]; 72 h): 30.5 µM
O=C1C=CC(=O)c2ccccc21 [1,4-NQ, 1,4-naphthoquinone] | 20.7 µM |  |  |  |  |  |  | IC50 [7]: 8.33 µM; percentage of methyl green replacement (salmon sperm DNA): 65%; IC50 [8]: 62.9 µM
O=C1C2=C(C(=O)c3ccccc31)C(C=Cc1ccccc1)c1sc(=O)[nH]c1S2 (stereo not shown) [Compound 3.1, 11-Styryl-3,11-dihydro-2H-benzo [6,7]thiochromeno [2,3-d]thiazole-2,5,10-trione] | 37 µM | 43.7 µM | 29.2 µM | 9.19 µM | 338 to 340 °C | 40.3 µM | 24.4 µM | 
O=C1C2=C(C(=O)c3ccccc31)C(C=Cc1ccccc1[N+](=O)[O-])c1sc(=O)[nH]c1S2 (stereo not shown) [Compound 3.2, 11-(2-Nitrostyryl)-3,11-dihydro-2H-benzo[6,7]thiochromeno[2,3-d]thiazole-2,5,10-trione] | 39.2 µM | 26 µM | 6.81 µM | 8.47 µM | 330 to 332 °C | > 50 µM | 0.74 µM | 
CC1(C)C2=C(Sc3[nH]c(=O)sc31)C(=O)c1ccccc1C2=O [Compound 3.4, 11,11-Dimethyl-3,11-dihydro-2H-benzo[6,7]thiochromeno[2,3-d]thiazole-2,5,10-trione] | 26 µM | 7.11 µM | 5.54 µM | 34.3 µM | 230 to 232 °C | 25.2 µM | 11.1 µM | 
O=C1C2=C(C(=O)c3ccccc31)C1(CCCC1)c1sc(=O)[nH]c1S2 [Compound 3.5, Spiro[benzo[6,7]thiochromeno[2,3-d]thiazole-11,1’-cyclopentane]-2,5,10(3H)-trione] | > 50 µM | > 50 µM | 43.6 µM | > 50 µM | 231 to 233 °C | > 50 µM | > 50 µM | Most Sensitive Cell Line Growth, % (T-47D/Breast Cancer) (T-47D/Breast Cancer): 51.21%; Most Sensitive Cell Line Growth, % (EKVX/Non-Small Cell Lung Cancer) [9]: 54.98%; Most Sensitive Cell Line Growth, % (UO-31/Renal Cancer) (UO-31/Renal Cancer): 55.54%; Most Sensitive Cell Line Growth, % (SR/Leukemia) (SR/Leukemia): 59.89%; Most Sensitive Cell Line Growth, % (RPMI-8226/Leukemia) (RPMI-8226/Leukemia): 53.82%; Most Sensitive Cell Line Growth, % (IGROV1/Ovarian Cancer) (IGROV1/Ovarian Cancer): 55.15%; Mean Growth, % ([10]; growth percent vs untreated control, 60 cell lines): 88.33%; Range of Growth, % ([10]; range over 60 cell lines): 51.21 to 126.93%
